# Test results from patent publication US7105539B2, “Derivatives of succinic and glutaric acids and analogs thereof useful as inhibitors of phex” (Enobia Pharma, priority 2002, dated 2006).
# What was measured:
# sPHEX = target: T1, sPHEX (Homo sapiens, UniProt P78562); assay: Protection of PHEX substrate PTHrP107-139 from sPHEX degradation (RP-HPLC); type: biochemical; settings: 1×10^−5M inhibitor, 1.0 μg sPHEX, 30 min, 37° C.; without inhibitor approximately 75% degraded
# T1 construct: The soluble form of the metallopeptidase PHEX (sPHEX) was purified to homogeneity; made in house
# T1 sequence (P78562 53-749 limits assumed): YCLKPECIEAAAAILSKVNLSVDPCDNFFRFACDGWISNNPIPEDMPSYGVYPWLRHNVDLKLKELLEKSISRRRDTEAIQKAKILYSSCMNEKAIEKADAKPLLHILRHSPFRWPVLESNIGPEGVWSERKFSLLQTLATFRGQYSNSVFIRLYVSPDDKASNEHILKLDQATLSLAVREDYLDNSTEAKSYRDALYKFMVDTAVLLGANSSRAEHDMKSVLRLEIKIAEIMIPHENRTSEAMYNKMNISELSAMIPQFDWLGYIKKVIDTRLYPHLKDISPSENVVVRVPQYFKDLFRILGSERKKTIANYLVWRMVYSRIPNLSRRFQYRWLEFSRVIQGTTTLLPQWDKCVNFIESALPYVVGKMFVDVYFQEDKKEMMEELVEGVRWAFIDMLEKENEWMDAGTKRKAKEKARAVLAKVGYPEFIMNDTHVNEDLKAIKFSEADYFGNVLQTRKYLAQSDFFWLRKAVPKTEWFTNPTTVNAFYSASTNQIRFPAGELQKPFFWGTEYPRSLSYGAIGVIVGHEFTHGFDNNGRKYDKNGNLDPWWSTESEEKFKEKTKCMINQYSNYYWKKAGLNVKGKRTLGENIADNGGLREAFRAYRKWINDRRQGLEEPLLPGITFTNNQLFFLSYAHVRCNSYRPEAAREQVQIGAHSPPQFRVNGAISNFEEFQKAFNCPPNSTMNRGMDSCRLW
# Procedure: In general, in order to show inhibition of sPHEX, the enzyme is incubated in the absence or the presence of the inhibiting compound, and a substrate is added in conditions that are suitable for sPHEX enzymatic activity. Hydrolysis of the substrate in the absence or the presence of the inhibiting compound is monitored.
# For example, 1.0 μg of purified sPHEX was first incubated at 37° C. for 15 min with or without 1×10^−5M of compound MH-2-64C (FIG. 1) in 90 μl 50 mM MES (2-(N-morpholino)ethanesulfonic acid) pH 6.5, 150 mM NaCl. Then, 2.5 μg of peptide PTHrP107-139 in 10 μl of the same buffer were added and the incubation continued for 30 min. The reaction mixture also contained 1.3 μg of the amino acid Phe which was used as an internal standard. After the incubation period, the reaction was stopped by the addition of EDTA to a final concentration of 5 mM. Detection of cleavage products was performed by reverse phase high performance liquid chromatography (RP-HPLC) on a C18 μBondapak™ analytical column (Waters, Mississauga, ON, Canada) with a UV detector set at 220 nm. […] Results were quantified by comparing the area under the undigested peak of PTHrP107-139, after normalization for the amount of Phe present in the sample. […]
# rat mandibular defect = assay: Bone lesion repair in rat mandibular defect model (hydroxyapatite particles soaked in inhibitor); type: in vivo; settings: for bone formation (scanning electron microscopy, % of total defect area): 14 days healing
# Procedure: Osteogenic properties of PHEX inhibitors can be shown in a model of rat mandibular defect. For example, a 2 mm size bone defect was created in the rat mandible as described previously (Vu et al., 1999). Rats were anesthetized and the vestibular surface of the right mandibular ramus was exposed as follow: an incision was made through the skin along an imaginary line forming a 90° angle with the lower lip to access the muscle layer. A scalpel blade was used to make an incision parallel to the fibers of the deep portion of masseter muscle, about 2 mm posterior to the facial artery (largest branch of the external carotid), in the portion where it gives rise to the labial mandibular artery. The periosteum was elevated and the underlying bony surface exposed. A 2 mm×2 mm bony window was drilled between the second and third molar using a slow-speed dental drill with a carbide round burr size 1.4 mm (Brasseler) and a drill size 2 mm (Straumann Canada Ltd). Saline irrigation was used during the drilling. Porous hydroxyapatite particles (Fin-Ceramica Faenza s.r.l.) with pore size ranged from 450 to 600 μm were accommodated in the bony hole and pushed into it. The particles had been incubated previously in solutions of varying concentrations of PHEX inhibitor or vehicle for 16 to 24 hours at 4° C. Once the bony window was filled the lesion was covered with a membrane of hydroxyapatite (Fin-Ceramica Faenza s.r.l.) which was fixed to the surrounding bone surface with topical tissue adhesive. The muscle fibers were carefully repositioned on the mandible and sutured with absorbable surgical sutures (Chromic Gut, Ethicon Inc.). The skin was sutured for total coverage with silk sutures (Sherwood Davis & Geck, Wayne). After 7 days of treatment the bone lesion was exposed and varying concentrations of PHEX inhibitor or vehicle was reapplied to hydroxyapatite particles. Treatment was continued for another 7 days.
# After the 14 day healing period, bone formation at the defect was evaluated by scanning electron microscopy and microcomputed tomography. Animals were sacrificed by intravascular perfusion through the left ventricle with 4% paraformaldehyde and 0.1% glutaraldehyde solution. Treated hemimandibles were taken, immersed in the fixative overnight at 4° C. then washed and kept in 0.1 M cacodylate buffer pH 8.0 until analysis. Specimens for quantification by scanning electron microscopy were dehydrated in a graded alcohol series and embedded in LR White resin (Marivac) for further sectioning along their longitudinal axis. […] Amount of bone tissue present in the sections was quantified by manual tracing using the MOP-3 system (Carl Zeiss) and was expressed as a percentage of the total defect area. […]
structure (smiles),measurement,setting,value
"O=C(O)CC(CC(=O)NO)C(=O)NCCc1ccc(-c2ccccc2)cc1 (centres unmarked) [Example 126, 3-(2-Biphenyl-4-yl-ethylcarbamoyl)-4-hydroxycarbamoyl-butyric acid]",degradation of PTHrP107-139 by sPHEX,sPHEX,fully prevented
same,"bone formation (scanning electron microscopy, % of total defect area)","rat mandibular defect; 1×10^−5 M on hydroxyapatite particles, compared to saline",reduced significantly
same,bone formation (microcomputed tomography 3D reconstruction),"rat mandibular defect; high inhibitor dose, one representative specimen",reduced bone formation
same,bone around particles (microcomputed tomography 3D reconstruction),"rat mandibular defect; low dose of inhibitor vs particles soaked in saline, one representative specimen",more bone
same,"bone formation (scanning electron microscopy, % of total defect area)",rat mandibular defect; lower concentrations on hydroxyapatite particles,significantly stimulated
